Experimental data: patent US12383544B2, “Methods for the treatment of polycystic kidney disease” (Galapagos NV, priority 2019, dated 2025)
Like-named read-outs stand apart in the source and are kept apart here.

How the values were obtained:
Format in all cases: cell-based
[1] = molecular target: T1, wt CFTR (CFTR channel) (Homo sapiens, UniProt P13569); experiment: TECC assay on normal primary human bronchial epithelial (HBE) cells; settings: 0.3 μM forskolin
T1 construct: evaluate compounds on normal primary bronchial epithelial cells (HBE cells); endogenous in cells; host or cells: normal primary human bronchial epithelial (HBE) cells from donor lungs
Description: The TECC assay is used to evaluate compounds on normal primary bronchial epithelial cells (HBE cells), which are closer to physiological conditions
Bronchial epithelial cells isolated from transplanted lungs from normal (wt CFTR) were isolated from lungs obtained from donors undergoing a planned transplantation. These primary cells were cultured directly on type IV collagen-coated polycarbonate Transwell supports with a diameter of 6.5 mm and pore size of 0.4 μm (Costar, #3397) for 18 to 25 days in air liquid (ali) interface essentially as previously described for TECC. (Fulcher et al. 2005)
Trans-epithelial clamp circuit (TECC) recordings were performed using the TECC instrument developed and sold by EP Design (Bertem, Belgium). During the recording, the epithelial cells were bathed in a NaCl-Ringer solution (120 mM NaCl, 20 mM HEPES, 1.2 mM CaCl2, 1.2 mM MgCl2, 0.8 mM KH2PO4, 0.8 mM K2HPO4, 5 mM glucose, pH 7.4) on both the basolateral (640 μl) and the apical side (160 μl) and kept at 37° C. Apical amiloride was used to inhibit the endogenous ENaC currents (100 μM) while forskolin (0.3 μM) was applied on both the apical and basolateral sides to stimulate CFTR. All triggers and compounds used during the experiment were first dissolved in DMSO to a 1000× concentrated solution, just prior to treatment a 10× stock was prepared in the NaCl-Ringer solution which was used for addition of the correct concentration of trigger and or compound during the experiment. Cells were treated with test compounds for 24 hours before recording and this treatment was repeated in the TECC buffer prior to the electrophysiological recording. Measurements were done during a 20-min timeframe with recordings every 2 min. The transepithelial potential (PD) and transepithelial resistance (Rt) were measured in an open circuit and transformed to Ieq using Ohm's law. The maximal increase in Ieq (Δ Ieq) was used as a measure for the increased CFTR activity.

[2] = molecular target: T2, wild type mouse CFTR (Mus musculus, UniProt P26361); experiment: YFP halide (YHA) assay in mIMCD3_wt cells, Cpd 1 with Metformin
T2 construct: expressed in transfected cells; host or cells: mouse mIMCD3_wt cells (ATCC CRL-2123)
Description: To evaluate the ability of a test compound combination to inhibit wild type CFTR using tubular kidney cells, a YFP halide assay using mIMCD3_wt cells (ATCC® CRL-2123) transfected with wild type mouse CFTR was developed (Galietta, Jayaraman, and Verkman 2001). Cells were incubated during 24 h with a dose range of compound 1 or a combination of a dose range of compound 1 with increasing dose of Metformin Immediately before measurement, forskolin together with a dose range of compound 1 combined or not with increasing dose of Metformin was added the wild type CFTR expressing mIMCD3 cells in order to fully activate the available CFTR at the plasma membrane. Inhibition of the channel by test compounds was plotted to obtain IC50s.
Mouse mIMCD3_wt cells were transfected with 20 ng of wild type CFTR and 80 ng of plasmid encoding YFP (H148Q/I152L/F47L) using jetPEI (Polyplus transfection). Directly after transfection, cells were seeded in black 96-well plates coated with Poly-D-lysine at a density of 40,000 cells per well. The next day, cells were treated with compounds for 24 h. After this incubation period, cells were washed twice with DPBS with Ca^2+ and Mg^2+. Subsequently, cells were treated with 10 μM forskolin and the desired concentrations of compounds in a volume of 40 μl and incubated at room temperature for 15 min, a time point optimized in previous experiments resulting in a good window (positive control/negative control>2) and signal to background ratio. YFP fluorescence was measured using an EnVision plate reader (PerkinElmer). […] The excitation wavelength was 485 nm and the emission wavelength 530 nm.
Concentration-response experiments were fitted using a 4 parameter hill function of the form Response=Bottom+(Top−Bottom)/(1+(EC50/concentration)^HillSlope)) to determine EC50 values.

[3] = molecular target: T3, wild type human CFTR (Homo sapiens, UniProt P13569); experiment: Yellow Fluorescent Protein (YFP) halide assay in wild type CFTR (HEK293 cells); settings: HEK293 cells transfected with wild type human CFTR; 24 h incubation; 10 μM forskolin; read-out: EC50 of inhibition of WT CFTR
T3 construct: expressed in transfected cells; host or cells: HEK293
Description: To evaluate the ability of a test compound to inhibit wild type CFTR, a YFP halide assay using HEK293 cells transfected with wild type human CFTR was developed. (Galietta, Jayaraman, and Verkman 2001) Cells were incubated during 24 h with a dose range of test compound and the resulting wild type CFTR activity was plotted to obtain the EC50.
Test compounds were also added together with forskolin to wild type CFTR expressing cells in order to fully active the available CFTR at the plasma membrane and determine accurately the inhibition of the channel activity.
HEK293 cells were transfected with 10 to 80 ng of wild type CFTR and 20 ng of plasmid encoding YFP (H148Q/I152L/F47L) using jetPEI (Polyplus transfection). Directly after transfection, cells were seeded in black 96-well plates coated with Poly-D-lysine at a density of 70,000 cells per well. The next day, cells were treated with corrector(s) for 24 h. After this incubation period, cells were washed twice with DPBS with Ca^2+ and Mg^2+. Subsequently, cells were treated with 10 μM forskolin and the desired concentration of potentiator in a volume of 40 μl and incubated at room temperature for 10 min, a time point optimized in previous experiments resulting in a good window (positive control/negative control >2) and signal to background ratio. YFP fluorescence was measured using an EnVision plate reader (PerkinElmer). […]

T2 sequence (P26361 whole entry): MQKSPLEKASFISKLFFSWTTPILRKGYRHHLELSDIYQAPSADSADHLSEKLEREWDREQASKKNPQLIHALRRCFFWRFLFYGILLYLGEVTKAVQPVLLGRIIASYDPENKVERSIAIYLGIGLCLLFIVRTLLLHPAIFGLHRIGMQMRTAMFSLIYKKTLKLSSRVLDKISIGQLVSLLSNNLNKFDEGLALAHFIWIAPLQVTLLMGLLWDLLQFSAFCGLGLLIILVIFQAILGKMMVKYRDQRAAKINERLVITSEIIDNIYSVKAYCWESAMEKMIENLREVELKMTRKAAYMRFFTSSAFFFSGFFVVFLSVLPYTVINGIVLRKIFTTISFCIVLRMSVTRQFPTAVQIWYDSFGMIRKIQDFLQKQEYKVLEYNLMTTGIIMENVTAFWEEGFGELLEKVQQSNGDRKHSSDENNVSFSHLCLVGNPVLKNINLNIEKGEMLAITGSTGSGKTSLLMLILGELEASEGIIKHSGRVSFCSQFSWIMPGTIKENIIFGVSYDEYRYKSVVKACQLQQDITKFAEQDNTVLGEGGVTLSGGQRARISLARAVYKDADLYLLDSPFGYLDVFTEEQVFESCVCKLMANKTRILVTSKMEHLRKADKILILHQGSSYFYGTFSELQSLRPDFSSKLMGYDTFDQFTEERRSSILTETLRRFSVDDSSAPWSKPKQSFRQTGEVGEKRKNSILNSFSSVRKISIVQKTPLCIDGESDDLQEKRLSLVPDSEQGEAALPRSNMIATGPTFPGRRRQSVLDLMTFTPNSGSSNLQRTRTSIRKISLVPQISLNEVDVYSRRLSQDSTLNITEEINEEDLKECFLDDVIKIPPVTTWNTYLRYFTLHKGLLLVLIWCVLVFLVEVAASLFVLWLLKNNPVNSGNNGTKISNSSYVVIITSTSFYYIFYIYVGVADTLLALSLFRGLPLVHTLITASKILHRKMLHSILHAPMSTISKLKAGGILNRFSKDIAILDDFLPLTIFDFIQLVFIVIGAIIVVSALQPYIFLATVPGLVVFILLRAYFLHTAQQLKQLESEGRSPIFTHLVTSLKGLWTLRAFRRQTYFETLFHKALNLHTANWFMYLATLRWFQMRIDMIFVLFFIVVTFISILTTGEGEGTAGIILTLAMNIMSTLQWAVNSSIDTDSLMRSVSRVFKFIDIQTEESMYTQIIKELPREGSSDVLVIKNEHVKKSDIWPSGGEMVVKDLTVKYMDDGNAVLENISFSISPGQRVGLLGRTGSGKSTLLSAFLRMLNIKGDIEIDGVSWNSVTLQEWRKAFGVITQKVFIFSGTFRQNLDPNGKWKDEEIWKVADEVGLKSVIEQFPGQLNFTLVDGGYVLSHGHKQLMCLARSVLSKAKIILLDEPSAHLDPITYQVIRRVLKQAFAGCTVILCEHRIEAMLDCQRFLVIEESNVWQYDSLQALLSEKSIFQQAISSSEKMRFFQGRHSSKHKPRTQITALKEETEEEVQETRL
T1 sequence (P13569 whole entry): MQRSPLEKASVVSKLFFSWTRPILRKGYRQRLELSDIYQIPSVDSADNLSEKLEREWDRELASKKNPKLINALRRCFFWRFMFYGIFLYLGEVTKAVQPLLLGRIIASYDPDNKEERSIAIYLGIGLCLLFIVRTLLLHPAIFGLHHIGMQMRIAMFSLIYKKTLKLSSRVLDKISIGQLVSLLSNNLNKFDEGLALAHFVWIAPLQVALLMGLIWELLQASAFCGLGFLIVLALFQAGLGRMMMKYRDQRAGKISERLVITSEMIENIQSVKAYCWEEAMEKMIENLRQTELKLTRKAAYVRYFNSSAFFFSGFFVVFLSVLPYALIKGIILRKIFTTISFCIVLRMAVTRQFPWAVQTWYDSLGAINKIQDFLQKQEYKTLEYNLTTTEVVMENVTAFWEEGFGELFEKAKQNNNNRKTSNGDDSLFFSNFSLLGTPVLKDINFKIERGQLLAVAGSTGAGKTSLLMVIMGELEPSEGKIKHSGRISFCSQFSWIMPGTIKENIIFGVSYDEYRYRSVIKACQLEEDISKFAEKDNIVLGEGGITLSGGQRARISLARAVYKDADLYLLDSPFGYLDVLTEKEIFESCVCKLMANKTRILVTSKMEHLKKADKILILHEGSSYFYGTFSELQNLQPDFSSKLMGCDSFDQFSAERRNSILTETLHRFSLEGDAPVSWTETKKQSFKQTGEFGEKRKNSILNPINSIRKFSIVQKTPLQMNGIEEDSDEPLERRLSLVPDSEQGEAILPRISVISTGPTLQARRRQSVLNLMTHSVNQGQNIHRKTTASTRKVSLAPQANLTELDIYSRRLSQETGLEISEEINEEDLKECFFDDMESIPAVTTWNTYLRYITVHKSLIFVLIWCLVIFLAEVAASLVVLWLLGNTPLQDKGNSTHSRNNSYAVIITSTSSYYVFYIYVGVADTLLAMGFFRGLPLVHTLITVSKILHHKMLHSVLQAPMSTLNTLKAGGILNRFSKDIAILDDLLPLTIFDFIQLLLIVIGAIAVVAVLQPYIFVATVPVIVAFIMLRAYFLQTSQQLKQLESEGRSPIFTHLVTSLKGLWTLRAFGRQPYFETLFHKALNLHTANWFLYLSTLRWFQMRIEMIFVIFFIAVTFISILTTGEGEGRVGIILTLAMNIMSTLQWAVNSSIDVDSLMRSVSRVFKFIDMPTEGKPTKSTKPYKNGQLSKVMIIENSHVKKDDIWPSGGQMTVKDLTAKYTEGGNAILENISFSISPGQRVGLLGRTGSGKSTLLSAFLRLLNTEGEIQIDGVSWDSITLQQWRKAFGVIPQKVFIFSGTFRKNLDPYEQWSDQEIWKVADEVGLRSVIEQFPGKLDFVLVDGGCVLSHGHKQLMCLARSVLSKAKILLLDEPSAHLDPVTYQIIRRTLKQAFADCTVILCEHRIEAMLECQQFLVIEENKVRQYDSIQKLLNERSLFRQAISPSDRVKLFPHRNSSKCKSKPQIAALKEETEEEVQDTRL
T3 sequence (P13569 whole entry): as above

## COC1CCN(C2CCN(c3cc(C(=O)NS(=O)(=O)N(C)C)nc4c3c(C3CCC3)nn4-c3ccc(F)cc3)CC2)CC1 [Cpd 1]
[1]; read-out: IC50 value (resulting from pIC50) (converted)
  IC50: 0.108 µM
[1]; vs DMSO control
  reduction of channel activity: 54%
[1]; 24 h treatment
  current after incubation (Ieq): 6.6 μA/cm^2
[2]; Compound 1 alone at 30 μM, mouse mIMCD3_wt cells, read-out: EC50 of inhibition of mouse CFTR activity
  EC50: 3.12 µM
[2]; [Metformin] 0 μM, mIMCD3_wt cells, read-out: IC50
  IC50: 3.12 µM
[2]; [Metformin] 20 μM, mIMCD3_wt cells, read-out: IC50
  IC50: 3.67 µM
[2]; [Metformin] 40 μM, mIMCD3_wt cells, read-out: IC50
  IC50: 2.32 µM
[2]; [Metformin] 80 μM, mIMCD3_wt cells, read-out: IC50
  IC50: 3.79 µM
[2]; [Metformin] 160 μM, mIMCD3_wt cells, read-out: IC50
  IC50: 2.91 µM
[2]; [Metformin] 310 μM, mIMCD3_wt cells, read-out: IC50
  IC50: 1.91 µM
[2]; [Metformin] 630 μM, mIMCD3_wt cells, read-out: IC50
  IC50: 1.77 µM
[2]; [Metformin] 1250 μM, mIMCD3_wt cells, read-out: IC50
  IC50: 1.82 µM
[2]; [Metformin] 2500 μM, mIMCD3_wt cells, read-out: IC50
  IC50: 0.83 µM
[2]; combined with 5 μM of Metformin, mouse mIMCD3 cells, read-out: IC50 of inhibition of mouse CFTR
  IC50: 0.92 µM
[3]
  EC50: 0.728 µM
